# Measured values taken from article PMC10257182, “Discovery of senolytics using machine learning” (Nature Communications, 2023).
# Like-named read-outs stand apart in the source and are kept apart here.
# Tests used:
# Assay type in all cases: cell-based, human
# [1] = test system: non-senescent control IMR90 ER:RAS cells; assay: Nuclei count (Hoechst, high content imaging) senolytic assay, OIS model, non-senescent control cells; settings: Homo sapiens
# Method in brief: (§1)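 Cells seeded, left 24 h, then dosed across a 10-point […] series (10 μM down to 10 nM) with DMSO control. After 72 h, wells were fixed, permeabilised and stained with Hoechst. Nuclei were counted by high-content imaging in senescent and non-senescent IMR90 ER:RAS cultures.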
# [2] = test system: senescent IMR90 ER:RAS cells (4-OHT-induced); assay: Nuclei count (Hoechst, high content imaging) senolytic assay, oncogene-induced senescence (OIS) model, senescent cells; settings: Homo sapiens
# Method in brief: as §1
# [3] = test system: non-senescent control A549 cells; assay: Nuclei count senolytic assay, TIS model, non-senescent control cells; settings: Homo sapiens, A549, Control cells, mean, read-out: Mean % Cell Survival
# Method in brief: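 Senescence in A549 cells is induced by 48 h of 100 μM etoposide followed by three days without drug, alongside non-senescent controls. Cells are seeded, rested 24 h, then exposed 72 h to compounds (10 nM–10 μM final, […] steps, triplicate) before nuclei are counted by imaging.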
structure (smiles),measurement,setting,value
"O=c1cc(-c2ccc(O)cc2)oc2cc(O)c(O)c(O)c12 [Scutellarein, scutellarein]",viability at 10 µM,"[1]; IMR-90, 72 h, Control, log (dose) [M] -5, 72 h, mean n=3 (Fig 3C), read-out: Mean % Cell Survival",97.3%
same,viability at 4.677 µM,"[1]; IMR-90, 72 h, Control, log (dose) [M] -5.33, 72 h, mean n=3 (Fig 3C), read-out: Mean % Cell Survival",95.7%
same,viability at 2.188 µM,"[1]; IMR-90, 72 h, Control, log (dose) [M] -5.66, 72 h, mean n=3 (Fig 3C), read-out: Mean % Cell Survival",88.9%
same,viability at 1 µM,"[1]; IMR-90, 72 h, Control, log (dose) [M] -6, 72 h, mean n=3 (Fig 3C), read-out: Mean % Cell Survival",88.2%
same,viability at 0.4677 µM,"[1]; IMR-90, 72 h, Control, log (dose) [M] -6.33, 72 h, mean n=3 (Fig 3C), read-out: Mean % Cell Survival",95.4%
same,viability at 0.2188 µM,"[1]; IMR-90, 72 h, Control, log (dose) [M] -6.66, 72 h, mean n=3 (Fig 3C), read-out: Mean % Cell Survival",109%
same,viability at 0.1 µM,"[1]; IMR-90, 72 h, Control, log (dose) [M] -7, 72 h, mean n=3 (Fig 3C), read-out: Mean % Cell Survival",118%
same,viability at 0.04677 µM,"[1]; IMR-90, 72 h, Control, log (dose) [M] -7.33, 72 h, mean n=3 (Fig 3C), read-out: Mean % Cell Survival",130%
same,viability at 0.02188 µM,"[1]; IMR-90, 72 h, Control, log (dose) [M] -7.66, 72 h, mean n=3 (Fig 3C), read-out: Mean % Cell Survival",117%
same,viability at 0.01 µM,"[1]; IMR-90, 72 h, Control, log (dose) [M] -8, 72 h, mean n=3 (Fig 3C), read-out: Mean % Cell Survival",121%
same,viability at 10 µM,"[1]; IMR-90, Control, log (dose) [M] -5, read-out: % Cell Survival",112%
same,viability at 4.68 µM,"[1]; IMR-90, Control, log (dose) [M] -5.33, read-out: % Cell Survival",101%
same,viability at 2.19 µM,"[1]; IMR-90, Control, log (dose) [M] -5.66, read-out: % Cell Survival",102%
same,viability at 1 µM,"[1]; IMR-90, Control, log (dose) [M] -6, read-out: % Cell Survival",108%
same,viability at 0.468 µM,"[1]; IMR-90, Control, log (dose) [M] -6.33, read-out: % Cell Survival",101%
same,viability at 0.219 µM,"[1]; IMR-90, Control, log (dose) [M] -6.66, read-out: % Cell Survival",107%
same,viability at 0.1 µM,"[1]; IMR-90, Control, log (dose) [M] -7, read-out: % Cell Survival",107%
same,viability at 0.04677 µM,"[1]; IMR-90, Control, log (dose) [M] -7.33, read-out: % Cell Survival",102%
same,viability at 0.0219 µM,"[1]; IMR-90, Control, log (dose) [M] -7.66, read-out: % Cell Survival",99.8%
same,viability at 0.01 µM,"[1]; IMR-90, Control, log (dose) [M] -8, read-out: % Cell Survival",107%
same,viability at 10 µM,"[2]; IMR-90, 72 h, Senescent, log (dose) [M] -5, 72 h, mean n=3 (Fig 3C), read-out: Mean % Cell Survival",124%
same,viability at 4.677 µM,"[2]; IMR-90, 72 h, Senescent, log (dose) [M] -5.33, 72 h, mean n=3 (Fig 3C), read-out: Mean % Cell Survival",124%
same,viability at 2.188 µM,"[2]; IMR-90, 72 h, Senescent, log (dose) [M] -5.66, 72 h, mean n=3 (Fig 3C), read-out: Mean % Cell Survival",132%
same,viability at 1 µM,"[2]; IMR-90, 72 h, Senescent, log (dose) [M] -6, 72 h, mean n=3 (Fig 3C), read-out: Mean % Cell Survival",124%
same,viability at 0.4677 µM,"[2]; IMR-90, 72 h, Senescent, log (dose) [M] -6.33, 72 h, mean n=3 (Fig 3C), read-out: Mean % Cell Survival",137%
same,viability at 0.2188 µM,"[2]; IMR-90, 72 h, Senescent, log (dose) [M] -6.66, 72 h, mean n=3 (Fig 3C), read-out: Mean % Cell Survival",132%
same,viability at 0.1 µM,"[2]; IMR-90, 72 h, Senescent, log (dose) [M] -7, 72 h, mean n=3 (Fig 3C), read-out: Mean % Cell Survival",115%
same,viability at 0.04677 µM,"[2]; IMR-90, 72 h, Senescent, log (dose) [M] -7.33, 72 h, mean n=3 (Fig 3C), read-out: Mean % Cell Survival",122%
same,viability at 0.02188 µM,"[2]; IMR-90, 72 h, Senescent, log (dose) [M] -7.66, 72 h, mean n=3 (Fig 3C), read-out: Mean % Cell Survival",106%
same,viability at 0.01 µM,"[2]; IMR-90, 72 h, Senescent, log (dose) [M] -8, 72 h, mean n=3 (Fig 3C), read-out: Mean % Cell Survival",100%
same,viability at 4.677 µM,"[2]; IMR-90, Senescent cells, log (dose) [M] -5.33, individual replicates, SUP FIG 4C, read-out: % Cell Survival",129%
same,viability at 0.2188 µM,"[2]; IMR-90, Senescent, log (dose) [M] -6.66, read-out: % Cell Survival",97.8%
same,viability at 0.04677 µM,"[2]; IMR-90, Senescent, log (dose) [M] -7.33, read-out: % Cell Survival",91.2%
same,viability at 0.01 µM,"[2]; IMR-90, Senescent, log (dose) [M] -8, read-out: % Cell Survival",100%
same,viability at 10 µM,[3]; log (dose) [M] -5,111%
same,viability at 4.68 µM,[3]; log (dose) [M] -5.33,112%
same,viability at 2.19 µM,[3]; log (dose) [M] -5.66,105%
same,viability at 1 µM,[3]; log (dose) [M] -6,108%
same,viability at 0.468 µM,[3]; log (dose) [M] -6.33,102%
same,viability at 0.219 µM,[3]; log (dose) [M] -6.66,109%
same,viability at 0.1 µM,[3]; log (dose) [M] -7,102%
same,viability at 0.0468 µM,[3]; log (dose) [M] -7.33,99.3%
same,viability at 0.0219 µM,[3]; log (dose) [M] -7.66,98.3%
same,viability at 0.01 µM,[3]; log (dose) [M] -8,99.7%
